Source: patent publication US9238030B2, “Methods for treatment of diseases and disorders related to transducin β-like protein 1 (TBL1) activity, including myeloproliferative neoplasia and chronic myeloid leukemia” (Beta Cat Pharmaceuticals, LLC, priority 2011, dated 2016)

How the values were obtained:
[1] = tested on: β-catenin; test: Western blot, proteasomal degradation of β-catenin in AML cells (FIG. 6C); format: cell-based
Experimental: As one can see, there is less of β-catenin in the AML cells treated with 100 nM of Compound 1 for 8 hours as compared to non-treated AML cells. However, when 10 nM of Carfilzomib (CZ) (a proteasome inhibitor) were administered to the same AML cells, the amount of β-catenin increased.

[2] = tested on: β-catenin; test: Western blot of primary AML cells (FIG. 6A); format: cell-based; settings: 100 nM, 8 hours
[3] = tested on: HEL 92.1.7 cells; test: Apoptosis of MPN cells, annexin V / TOPRO3 flow cytometry; format: cell-based
Experimental: (§1) Briefly, the cell lines HEL 92.1.7 (FIGS. 1A and 1C) and UKE1 (FIGS. 1B and 1D) were seeded in medium containing 10% FBS and penicillin/streptomycin. After 24 hours, the cells were treated with either: 1) Compound 1; or 2) Compound 1 in combination with TG101209 for 48 hours. At the end of treatment, cells were washed with 1×PBS and stained with annexin V and TOPRO3 iodide. The percentages of apoptotic cells were determined by flow cytometry.

[4] = tested on: UKE1 cells; test: as above; format: cell-based
Experimental: as §1

[5] = tested on: CD34+ CD38-Lin-Primary AML cells; test: % of non-viable cells, in vitro apoptosis; format: cell-based; settings: various amounts
[6] = tested on: CD34+ MPN cells; test: Apoptosis of primary MPN cells isolated from patients; format: cell-based
Experimental: Briefly, the CD34+ cells isolated from bone marrow of MPN patients, were seeded in medium containing 10% FBS and penicillin/streptomycin. After 24 hours, the cells were treated with Compound 1 for 48 hours or Compound 1 in combination with TG101209. At the end of treatment, cells were washed with 1×PBS and stained with annexin V and TOPRO3 iodide. The percentages of apoptotic cells were determined by flow cytometry. Combination index (CI) was determined using the method of Chou-Talalay (Adv. Enzyme Regul. 22, 27-55).

[7] = tested on: β-catenin at target gene promoters; test: chIP (Chromatin immunoprecipitation) analysis in AML cells; format: cell-based; settings: 200 nM, 8 hours
Description: FIG. 7B contains the bar chart of the results of chIP (Chromatin immunoprecipitation) analysis of the effect of treating AML cells with Compound 1.

[8] = tested on: β-catenin, c-MYC, Cyclin D1 and p21; test: Levels of β-catenin, c-MYC, Cyclin D1 and p21 in AML cells (FIG. 7C); format: cell-based; settings: 100 nM
Experimental: FIG. 7C contains the bar chart of the effect of administering 100 nM of Compound 1 to AML cells on levels of β-catenin, c-MYC, Cyclin D1 and p21 (control).

[9] = tested on: primary FLT3-ITD AML xenograft; test: Survival of NSG mice with primary FLT3-ITD AML xenograft; format: in vivo; settings: 10 mg/kg, three weeks, twice per week intravenous infusion
Description: Very similar results were obtained in NSG mice with primary FLT3-ITD AML xenograft.

[10] = target: T1, binding of β-catenin to TBL1 (Homo sapiens, UniProt O60907); test: Staining of AML cells with anti-β-catenin antibody, anti-TBL1 antibody and DAPI (FIG. 6B); format: cell-based; settings: 100 nM, 16 hours
T1 construct: endogenous in cells; host or cells: AML cells
T1 sequence (O60907 1-577): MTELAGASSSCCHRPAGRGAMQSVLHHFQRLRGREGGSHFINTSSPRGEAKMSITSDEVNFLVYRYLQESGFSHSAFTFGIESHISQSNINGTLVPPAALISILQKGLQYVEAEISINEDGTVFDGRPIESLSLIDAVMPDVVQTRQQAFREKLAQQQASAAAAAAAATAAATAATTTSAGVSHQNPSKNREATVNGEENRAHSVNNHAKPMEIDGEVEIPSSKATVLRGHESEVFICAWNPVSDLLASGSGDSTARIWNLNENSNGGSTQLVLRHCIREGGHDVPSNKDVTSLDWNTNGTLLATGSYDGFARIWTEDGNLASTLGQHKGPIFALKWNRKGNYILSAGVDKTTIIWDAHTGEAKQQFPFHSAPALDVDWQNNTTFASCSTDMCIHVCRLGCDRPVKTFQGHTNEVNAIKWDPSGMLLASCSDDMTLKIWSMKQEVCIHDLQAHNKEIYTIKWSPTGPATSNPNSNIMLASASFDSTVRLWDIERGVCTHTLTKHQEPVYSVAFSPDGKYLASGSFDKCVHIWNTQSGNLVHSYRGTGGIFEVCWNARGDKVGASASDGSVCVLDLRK
Experimental: FIG. 6B is a series of photographs of stained AML cells with and without prior administration of Compound 1. The top panel depicts control cells (without prior administration of Compound 1) and the bottom panel depicts AML cells following administration of 100 nM of Compound 1 for 16 hours. The cells were stained with the anti-β-catenin antibody, anti-TBL1 antibody, and DAPI nucleic acid stain. The photographs of TBL1 and anti-beta-catenin stains were also merged. […] Compare especially the top right photograph and the bottom right photograph.

[11] = tested on: CD34+ Primary FLT3-ITD AML cells; test: % of non-viable cells, in vitro apoptosis; format: cell-based; settings: various amounts
[12] = tested on: LAMA-84 cells; test: Apoptosis of CML cells, annexin V / TOPRO3 flow cytometry; format: cell-based, human
Experimental: (§2) Briefly, cell lines K562 (human immortalized myelogenous leukemia line) and LAMA-84 (a human leucocytic cell line) were seeded in medium containing 10% FBS and penicillin/streptomycin. After 24 hours, the cells were treated with Compound 1 for 48 hours. At the end of the treatment, the cells were washed with 1×PBS and stained with annexin V and TOPRO3 iodide. The percentages of apoptotic cells were determined by flow cytometry.
as §1, with “K562” for “HEL 92.1.7 (FIGS. 1A”, “LAMA-84,” for “1C) and UKE1 (FIGS. 1B and 1D)”, “1 alone;” for “1;”, “2)” for “2) Compound 1”, “panobinostat and nilotinib” for “TG101209”

[13] = tested on: K562 cells; test: as above; format: cell-based, human
Experimental: as §2
as §1, with “K562” for “HEL 92.1.7 (FIGS. 1A”, “LAMA-84,” for “1C) and UKE1 (FIGS. 1B and 1D)”, “1 alone;” for “1;”, “2)” for “2) Compound 1”, “panobinostat and nilotinib” for “TG101209”

[14] = tested on: TCF reporter plasmid (TOP-FLASH); test: TOP-FLASH and FOP-FLASH luciferase activity in AML cells; format: cell-based; settings: 20 nM, 50 nM, and 100 nM
Description: FIG. 7A depicts a bar chart of TOP-FLASH and FOP-FLASH luciferase activity versus treatment of AML cells with different amounts of Compound 1.
TOP-FLASH is a Transfection grade T-cell factor (TCF) reporter plasmid containing two sets (with the second set in the reverse orientation) of three copies of the TCF binding site (wild type) upstream of the Thymidine Kinase (TK) minimal promoter and Luciferase open reading frame.
FOP-FLASH is a reporter plasmid containing mutated TCF binding sites is a negative control.
There was no reduction in FOP-FLASH (negative control).

[15] = tested on: β-catenin; test: Western blot of AML cells (FIG. 5C); format: cell-based; settings: 100 nM
[16] = tested on: OCI-AML3 xenograft cells; test: Survival of NSG mice with established AML by OCI-AML3 xenograft; format: in vivo; settings: three weeks, twice per week tail vein infusion
[17] = tested on: β-catenin; test: β-catenin expression and nuclear localization, staining with anti-β-catenin antibody and DAPI; format: cell-based; settings: CD34+ Primary FLT3-ITD AML cells, 100 nM, 16 hours
Description: Briefly, CD34+ Primary AML cells, CD34+ Primary FLT3-ITD AML cells and CD34+ Normal cells were stained with anti-β-catenin antibody and DAPI nucleic acid stain. The photographs of these stains were also merged. The photographs of the stained cells are contained in FIG. 5A. As these photographs show, there is a lot of β-catenin expressed in both types of AML cells, and β-catenin is concentrated in nuclei of these cells.
As one can see, compared to control cells (i.e., not treated with Compound 1), this treatment leads to depletion of β-catenin expression and nuclear localization in AML cells.

[18] = tested on: CD34+ Primary FLT3-WT AML cells; test: % of non-viable cells, in vitro apoptosis; format: cell-based; settings: various amounts
[19] = tested on: HEL 92.1.7 cells; test: Mouse model of human MPN, survival; format: in vivo, NOD-SCID mice; settings: 15 or 20 mg/Kg b.i.w for three weeks via the tail vein; p<001
Experimental: Briefly, NOD-SCID mice were sub-lethally irradiated and HEL 92.1.7 cells were infused into the tail vein and MPN established. Mice were treated with 15 or 20 mg/Kg of Compound 1 administered b.i.w for three weeks via the tail vein. Animals were followed for survival after dosing stopped.

[20] = in combination with Compound 1, 48 hours

CC(C)C[C@H](NC(=O)[C@H](CCc1ccccc1)NC(=O)CN1CCOCC1)C(=O)N[C@@H](Cc1ccccc1)C(=O)N[C@@H](CC(C)C)C(=O)[C@@]1(C)CO1 [Carfilzomib, reference compound]
amount of β-catenin ([1]; 10 nM Carfilzomib administered to the same AML cells treated with Compound 1): increased

C[C@@H]1C[C@H](C)CN(S(=O)(=O)c2ccc3c(c2)C(=NO)c2cc(S(=O)(=O)N4C[C@H](C)C[C@H](C)C4)ccc2C3=NO)C1 [Compound 1]
β-catenin, Western blot [2]: less
apoptosis of HEL 92.1.7 cells ([3]; Compound 1 alone, 48 hours): induced apoptosis
apoptosis of UKE1 cells ([4]; Compound 1 alone, 48 hours): induced apoptosis
in vitro apoptosis (% of non-viable cells) [5]: significantly induced in vitro apoptosis
apoptosis of CD34+ MPN cells ([6]; 100 nM or above, 48 hours): induced apoptosis
fate of β-catenin ([1]; AML cells): proteasomal degradation
β-catenin compared to non-treated AML cells, Western blot ([1]; AML cells, 100 nM, 8 hours): less
amount of promoter DNA of CCND1, chIP [7]: reduced amount
amount of promoter DNA of c-MYC, chIP [7]: reduced amount
amount of promoter DNA of survivin, chIP [7]: reduced amount
expression of Cyclin D1 [8]: lower expression
expression of c-MYC [8]: lower expression
expression of p21 [8]: much higher expression
expression of β-catenin [8]: lower expression
% survival compared to the control mice [9]: dramatic increase
binding of β-catenin to TBL1, staining [10]: severely disrupted
levels of β-catenin, staining [10]: depleted
in vitro apoptosis (% of non-viable cells) [11]: significantly induced in vitro apoptosis
effect at S or G2/M phases of the cell cycle ([12]; LAMA-84, 48 hours): did not have significant effect
number of apoptotic cells at G0/G1 phase of the cell cycle ([12]; LAMA-84, 48 hours): increased
number of apoptotic cells ([12]; LAMA-84, Compound 1 alone, 48 hours): increased
effect at S or G2/M phases of the cell cycle ([13]; K562, 48 hours): did not have significant effect
number of apoptotic cells at G0/G1 phase of the cell cycle ([13]; K562, 48 hours): increased
number of apoptotic cells ([13]; K562, Compound 1 alone, 48 hours): increased
FOP-FLASH luciferase activity (negative control) [14]: no reduction
TOP-FLASH luciferase activity (expression of β-catenin as measured by this luciferase assay) [14]: much lower expression
Survivin level, Western blot [15]: about the same levels
TBL1 level, Western blot [15]: about the same levels
c-MYC level, Western blot [15]: about the same levels
β-actin level, Western blot [15]: about the same levels
β-catenin expression, Western blot [15]: less
survival compared to the control mice ([16]; 5 mg/kg): improved survival
survival compared to the control mice ([16]; 10 mg/kg): improved survival
β-catenin expression and nuclear localization [17]: depletion
in vitro apoptosis (% of non-viable cells) [18]: significantly induced in vitro apoptosis
survival compared to the control [19]: significantly improved survival

Cc1cnc(Nc2ccc(N3CCN(C)CC3)cc2)nc1Nc1cccc(S(=O)(=O)NC(C)(C)C)c1 [TG101209, N-tert-butyl-3-[[5-methyl-2-[4-(4-methylpiperazin-1-yl)anilino]pyrimidin-4-yl]amino]benzenesulfonamide, reference compound]
effect on apoptosis induced by Compound 1, HEL 92.1.7 cells [3, 20]: enhanced
effect on apoptosis induced by Compound 1, UKE1 cells [4, 20]: enhanced
effect on apoptosis induced by Compound 1, CD34+ MPN cells ([6]; in combination with Compound 1): enhanced

Cc1cn(-c2cc(NC(=O)c3ccc(C)c(Nc4nccc(-c5cccnc5)n4)c3)cc(C(F)(F)F)c2)cn1 [nilotinib, reference compound]
effect on apoptosis induced by Compound 1 ([12]; LAMA-84, in combination with Compound 1, 48 hours): enhanced
effect on apoptosis induced by Compound 1 ([13]; K562, in combination with Compound 1, 48 hours): enhanced
